Experimental data taken from patent US12448394B2, “Heterocyclic pyrazole derivatives as type III receptor tyrosine kinase inhibitors” (DEVELOPMENT CENTER FOR BIOTECHNOLOGY, priority 2019, dated 2025).
pIC50: −log10 of the molar value.

These compounds were tested against T1, FLT3-D835Y mutant kinase (Homo sapiens, UniProt P36888, D835Y) (assay: FLT3-D835Y mutant kinase assay (AlphaScreen)). Details: read-out: Ranking of IC50 values, FLT3-D835Y.
T1 construct: purchased SignalChem
T1 sequence (P36888 27-993 D835Y): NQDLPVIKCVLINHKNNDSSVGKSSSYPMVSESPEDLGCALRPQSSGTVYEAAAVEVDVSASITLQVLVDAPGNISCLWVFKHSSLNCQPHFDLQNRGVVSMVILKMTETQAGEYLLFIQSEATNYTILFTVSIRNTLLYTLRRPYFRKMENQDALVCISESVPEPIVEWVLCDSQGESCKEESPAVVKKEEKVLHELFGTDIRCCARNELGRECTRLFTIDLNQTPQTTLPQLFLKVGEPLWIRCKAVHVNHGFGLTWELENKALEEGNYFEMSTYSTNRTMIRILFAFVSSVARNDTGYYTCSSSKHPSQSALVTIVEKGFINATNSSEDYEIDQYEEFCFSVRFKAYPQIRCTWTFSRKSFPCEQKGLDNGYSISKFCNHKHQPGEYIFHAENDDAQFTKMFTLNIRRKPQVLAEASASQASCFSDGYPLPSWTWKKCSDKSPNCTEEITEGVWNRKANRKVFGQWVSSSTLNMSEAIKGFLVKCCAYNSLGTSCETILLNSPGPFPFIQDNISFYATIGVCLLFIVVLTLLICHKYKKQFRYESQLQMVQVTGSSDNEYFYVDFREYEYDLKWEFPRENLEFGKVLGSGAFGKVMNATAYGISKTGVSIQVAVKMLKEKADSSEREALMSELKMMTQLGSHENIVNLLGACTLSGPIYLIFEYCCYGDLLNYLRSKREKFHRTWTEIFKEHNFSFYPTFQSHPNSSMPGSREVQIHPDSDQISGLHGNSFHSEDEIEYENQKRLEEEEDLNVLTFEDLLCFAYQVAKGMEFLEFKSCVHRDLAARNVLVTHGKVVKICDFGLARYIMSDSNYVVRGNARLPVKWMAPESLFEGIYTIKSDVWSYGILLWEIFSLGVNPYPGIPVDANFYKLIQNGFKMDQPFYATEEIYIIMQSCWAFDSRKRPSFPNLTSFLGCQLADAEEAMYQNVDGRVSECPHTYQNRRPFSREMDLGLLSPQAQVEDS
Format: biochemical
Method in brief: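 AlphaScreen readout of biotin-poly(Glu4:Tyr1) phosphorylation by 1 ng recombinant FLT3-D835Y. Conditions were 10 μM ATP, 10 mM MgCl2, MOPS pH 7.0, 30 min at 30 °C, EDTA stop. Compounds were serially diluted in duplicate to derive IC50.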

Row | Structure (SMILES) | pIC50
1 | Cc1n[nH]c2cc(-c3n[nH]c4c3Cc3sc(-c5ccc(CN6CCOCC6)cc5)cc3-4)ccc12 [Compound 81, 4-(4-(3-(3-methyl-1H-indazol-6-yl)-1,4-dihydro-thieno[2′,3′:4,5]cyclopenta [1,2-c]pyrazol-6-yl)benzyl)morpholine] | 8.00 to 9.00
2 | CN1CCN(Cc2ccc(-c3cc4c(s3)Cc3c(-c5ccc6cn[nH]c6c5)n[nH]c3-4)cc2)CC1 [Compound 83, 3-(1H-indazol-6-yl)-6-(4-((4-methylpiperazin-1-yl)methyl)phenyl)-1,4-dihydrothieno[2′,3′:4,5] cyclopenta[1,2-c]pyrazole] | > 9.00
3 | Cn1ncc2ccc(-c3n[nH]c4c3Cc3sc(-c5ccc(CN6CCOCC6)c(F)c5F)cc3-4)cc21 [Compound 88, 4-(2,3-difluoro-4-(3-(1-methyl-1H-indazol-6-yl)-1,4-dihydrothieno [2′,3′:4,5]cyclopenta [1,2-c]pyrazol-6-yl)benzyl)morpholine] | 8.00 to 9.00
4 | Cn1nnc2ccc(-c3n[nH]c4c3Cc3sc(-c5ccc(CN6CCOCC6)cc5)cc3-4)cc21 [Compound 89, 4-(4-(3-(1-methyl-1H-benzo[d][1,2,3]triazol-6-yl)-1,4-dihydrothieno [2′,3′:4,5]cyclopenta [1,2-c]pyrazol-6-yl)benzyl)morpholine] | 8.00 to 9.00
5 | Cn1ncc2ccc(-c3n[nH]c4c3Cc3sc(-c5ccc(CN6CCOCC6)cc5OC(F)(F)F)cc3-4)cc21 [Compound 90, 4-(4-(3-(1-methyl-1H-indazol-6-yl)-1,4-dihydro-thieno[2′,3′:4,5]cyclopenta [1,2-c]pyrazol-6-yl)-3-(trifluoromethoxy)benzyl) morpholine] | 8.00 to 9.00
6 | Cc1cc(CN2CCOCC2)ccc1-c1cc2c(s1)Cc1c(-c3ccc4cnn(C)c4c3)n[nH]c1-2 [Compound 91, 4-(3-methyl-4-(3-(1-methyl-1H-indazol-6-yl)-1,4-dihydrothieno [2′,3′:4,5]cyclopenta [1,2-c]pyrazol-6-yl)benzyl)morpholine] | 8.00 to 9.00
7 | CN(C)Cc1ccc(-c2cc3c(s2)Cc2c(-c4ccc5cnn(C)c5c4)n[nH]c2-3)cn1 [Compound 93, N,N-dimethyl-1-(5-(3-(1-methyl-1H-indazol-6-yl)-1,4-dihydrothieno [2′,3′:4,5]cyclopenta [1,2-c]pyrazol-6-yl)pyridin-2-yl)methanamine] | 8.00 to 9.00
8 | CN(C)Cc1ccc(-c2cc3c(s2)Cc2c(-c4ccc5cnn(C)c5c4)n[nH]c2-3)cc1 [Compound 94, N,N-dimethyl-1-(4-(3-(1-methyl-1H-indazol-6-yl)-1,4-dihydrothieno [2′,3′:4,5]cyclopenta [1,2-c]pyrazol-6-yl)phenyl)methanamine] | 8.00 to 9.00

Now from value to compound:

Row | pIC50 | Structure (SMILES)
9 | > 9.00 | COc1ccc(-c2cc3c(s2)Cc2c(-c4ccc5cnn(C)c5c4)n[nH]c2-3)cn1 [Compound 4, 6-(6-methoxypyridin-3-yl)-3-(1-methyl-1H-indazol-6-yl)-1,4-dihydrothieno [2′,3′:4,5]cyclopenta[1,2-c] pyrazole]
10 | 8.00 to 9.00 | Cn1ncc2ccc(-c3n[nH]c4c3Cc3sc(-c5ccc(N6CCOCC6)nc5)cc3-4)cc21 [Compound 82, 4-(5-(3-(1-methyl-1H-indazol-6-yl)-1,4-dihydro-thieno[2′,3′:4,5]cyclopenta [1,2-c]pyrazol-6-yl)pyridin-2-yl)morpholine]
11 | > 9.00 | CN1CCN(Cc2ccc(-c3cc4c(s3)Cc3c(-c5ccc6cnn(C)c6c5)n[nH]c3-4)cc2)CC1 [Compound 84, 3-(1-methyl-1H-indazol-6-yl)-6-(4-((4-methylpiperazin-1-yl)methyl)phenyl)-1,4-dihydrothieno [2′,3′:4,5]cyclopenta [1,2-c]pyrazole]
12 | > 9.00 | CN1CCN(c2ccc(-c3cc4c(s3)Cc3c(-c5ccc6cnn(C)c6c5)n[nH]c3-4)cn2)CC1 [Compound 85, 3-(1-methyl-1H-indazol-6-yl)-6-(6-(4-methyl-piperazin-1-yl)pyridin-3-yl)-1,4-dihydrothieno [2′,3′:4,5]cyclopenta [1,2-c]pyrazole]
13 | 8.00 to 9.00 | Cn1ncc2ccc(-c3n[nH]c4c3Cc3sc(-c5ccnc(Cl)c5)cc3-4)cc21 [Compound 86, 6-(2-chloropyridin-4-yl)-3-(1-methyl-1H-indazol-6-yl)-1,4-dihydrothieno [2′,3′:4,5]cyclopenta [1,2-c]pyrazole]
14 | > 9.00 | CN1CCN(c2cc(-c3cc4c(s3)Cc3c(-c5ccc6cnn(C)c6c5)n[nH]c3-4)ccn2)CC1 [Compound 87, 3-(1-methyl-1H-indazol-6-yl)-6-(2-(4-methyl-piperazin-1-yl)pyridin-4-yl)-1,4-dihydrothieno [2′,3′:4,5]cyclopenta [1,2-c]pyrazole]
15 | > 9.00 | Cn1ncc2ccc(-c3n[nH]c4c3Cc3sc(-c5ccc(N)nc5)cc3-4)cc21 [Compound 92, 5-(3-(1-methyl-1H-indazol-6-yl)-1,4-dihydro-thieno[2′,3′:4,5]cyclopenta [1,2-c]pyrazol-6-yl) pyridin-2-amine]
